This note sets out measurements from PubChem BioAssay (NCI).

SMILES strings stand for the structures.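 The compound was tested at five concentrations on cells cultured in 96-well plates, with a 48-hour exposure period. The concentration for 50% growth inhibition is given as GI50. TGI marks complete inhibition of growth.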

Some test systems named below: DU-145 prostate; MCF7 breast; RPMI-8226 leukemia; UACC-62 melanoma; HCT-15 colon; SNB-75 CNS; K-562 leukemia; SK-MEL-5 melanoma; MDA-N; NCI/ADR-RES ovarian; SF-295 CNS.
What all share (experiment): DTP human tumour cell line panel, 48 h

On to `COC(=O)c1ccc(NCC2=CC(=O)c3ccccc3C2=O)cc1`, for which the TGI is 31.3 µM in the assay on DU-145 prostate; more than 100 µM in the assay with MCF7 breast; more than 26.5 µM with RPMI-8226 leukemia; 27.6 µM with UACC-62 melanoma; 33.1 µM in the assay with HCT-15 colon; 46.8 µM in the assay on SNB-75 CNS. In addition, the TGI with K-562 leukemia worked out at 32.2 µM; in the assay on SK-MEL-5 melanoma, 27.6 µM; in the assay with MDA-N, 26.6 µM; in the assay on NCI/ADR-RES ovarian, 90.6 µM; with SF-295 CNS, 35.1 µM.

In the case of `O=C1CNc2cc(N3CCN(c4cccc(C(F)(F)F)c4)CC3)ccc2N1`, the TGI in the assay with DU-145 prostate is more than 100 µM; with MCF7 breast, more than 90.1 µM; with RPMI-8226 leukemia, more than 67.5 µM; in the assay on UACC-62 melanoma, more than 86.1 µM; in the assay on HCT-15 colon it was more than 100 µM; in the assay with SNB-75 CNS it was more than 100 µM. Besides, the TGI was more than 100 µM in the assay on K-562 leukemia; 40.3 µM in the assay with SK-MEL-5 melanoma; more than 100 µM in the assay on MDA-N; more than 91.1 µM in the assay with NCI/ADR-RES ovarian; more than 92.3 µM in the assay with SF-295 CNS. The GI50 in the assay on K-562 leukemia is 9 µM.

For `CC(=O)O/C(=C(/C#N)C(=O)O)C1C(C(=O)O)C(c2ccccc2[N+](=O)[O-])C=C(c2ccco2)N1c1ccncc1` (stereo not given), the TGI came out at 21.4 µM in the assay on DU-145 prostate; 4.38 µM in the assay with MCF7 breast; 4.46 µM in the assay with RPMI-8226 leukemia; 17 µM with UACC-62 melanoma; 4.83 µM in the assay on HCT-15 colon; 20.1 µM with SNB-75 CNS. The total growth inhibition concentration (TGI) in the assay with K-562 leukemia was more than 100 µM; with SK-MEL-5 melanoma, 7.24 µM; in the assay with MDA-N, 7.26 µM; in the assay on NCI/ADR-RES ovarian, 36.6 µM; in the assay with SF-295 CNS, 19.2 µM.

Consider `COc1ccc(CN=C2Nc3ccncc3S(=O)(=O)N2c2ccccc2)cc1`, for which the TGI in the assay with DU-145 prostate was more than 100 µM; with MCF7 breast it was more than 100 µM; with RPMI-8226 leukemia it was 42.3 µM; with UACC-62 melanoma it was more than 100 µM; in the assay with HCT-15 colon, more than 100 µM; in the assay on SNB-75 CNS, more than 100 µM. The TGI is 93.2 µM with K-562 leukemia; 47.2 µM in the assay on SK-MEL-5 melanoma; more than 100 µM with MDA-N; more than 100 µM with NCI/ADR-RES ovarian; more than 100 µM with SF-295 CNS.

For `O=C(/C(Cl)=C/c1ccccc1)c1ccccc1`, the TGI was 29.8 µM in the assay on DU-145 prostate; more than 28.4 µM in the assay with MCF7 breast; more than 46.2 µM with RPMI-8226 leukemia; 22.9 µM with UACC-62 melanoma; 8.35 µM in the assay with HCT-15 colon; 26.9 µM with SNB-75 CNS. For the same compound, the TGI in the assay on K-562 leukemia is more than 26 µM; with SK-MEL-5 melanoma it was 12.1 µM; in the assay on MDA-N, 4.52 µM; in the assay with NCI/ADR-RES ovarian, 19.4 µM; in the assay with SF-295 CNS it was 37.6 µM.

Consider `CCOC(=O)c1cc2cc(CSc3ccccc3)ccc2oc1=O`, for which the TGI in the assay on DU-145 prostate, in the assay on MCF7 breast, in the assay on RPMI-8226 leukemia, with UACC-62 melanoma, in the assay on HCT-15 colon and in the assay on SNB-75 CNS was more than 100 µM in each case. Also, the TGI in the assay on K-562 leukemia, with SK-MEL-5 melanoma, in the assay with MDA-N, in the assay with NCI/ADR-RES ovarian and with SF-295 CNS was more than 100 µM each time.

As for `O=C(c1ccco1)N1CCN(C(=O)c2ccco2)C1=S`, the concentration for total growth inhibition (TGI) was determined as 7.99 µM in the assay on DU-145 prostate; 11 µM in the assay with MCF7 breast; 7.31 µM in the assay on RPMI-8226 leukemia; 19.1 µM with UACC-62 melanoma; 26.3 µM in the assay on HCT-15 colon; 26.2 µM with SNB-75 CNS. Besides, the TGI in the assay on K-562 leukemia was 16.5 µM; in the assay with SK-MEL-5 melanoma, 25.1 µM; in the assay on MDA-N, 22.6 µM; in the assay with NCI/ADR-RES ovarian, more than 79.7 µM; in the assay with SF-295 CNS, 35.8 µM.

As to `C/C=C/[C@@H]1O[C@H](CC#C[Si](C)(C)C)[C@@]2(C=O)C(C)=CC[C@H](C(C)C)[C@@H]12`, the TGI is 51.8 µM in the assay with DU-145 prostate; 63.1 µM in the assay on MCF7 breast; 52.2 µM in the assay on RPMI-8226 leukemia; 32.6 µM in the assay with UACC-62 melanoma; 48.5 µM in the assay on HCT-15 colon; 54.1 µM in the assay with SNB-75 CNS. The TGI in the assay on K-562 leukemia was more than 100 µM; in the assay with SK-MEL-5 melanoma, 35.2 µM; with MDA-N it was 43.9 µM; in the assay on NCI/ADR-RES ovarian it was 71 µM; in the assay on SF-295 CNS, 67.3 µM.

On to `Cc1ccc(NC(=S)NNC(=O)c2cc(-c3ccccc3)nc3ccccc23)cc1C`, for which the TGI with DU-145 prostate turned out to be 45.4 µM; with MCF7 breast, 47.8 µM; in the assay with RPMI-8226 leukemia, 59.2 µM; in the assay on UACC-62 melanoma, 37 µM; in the assay with HCT-15 colon, 60.5 µM; with SNB-75 CNS it was 56.5 µM. Further, the TGI in the assay with K-562 leukemia stood at 79.5 µM; in the assay on SK-MEL-5 melanoma, 34.4 µM; in the assay on MDA-N it was 40 µM; in the assay on NCI/ADR-RES ovarian, 49.1 µM; with SF-295 CNS, 29.6 µM.

For `O=C(O)c1cc2c(cc1S(=O)(=O)O)C1C(C3C2C2(Cl)C(Cl)=C(Cl)C3(Cl)C2(Cl)Cl)C2(Cl)C(Cl)=C(Cl)C1(Cl)C2(Cl)Cl` (stereo not given), the TGI was more than 100 µM in the assay on DU-145 prostate; more than 100 µM in the assay on MCF7 breast; more than 100 µM with RPMI-8226 leukemia; 46.9 µM with UACC-62 melanoma; more than 100 µM with HCT-15 colon; more than 100 µM with SNB-75 CNS. Besides, the TGI is more than 100 µM in the assay on K-562 leukemia; more than 100 µM in the assay with SK-MEL-5 melanoma; more than 100 µM with MDA-N; more than 100 µM in the assay on NCI/ADR-RES ovarian; 60.2 µM in the assay on SF-295 CNS.

For `COc1ccc2c(-c3ccc(O)cc3)c(Oc3ccccc3)c(=O)oc2c1`, the TGI in the assay with DU-145 prostate is more than 50.8 µM; with MCF7 breast it was more than 100 µM; in the assay on RPMI-8226 leukemia, more than 100 µM; in the assay on UACC-62 melanoma it was more than 100 µM; in the assay with HCT-15 colon it was more than 100 µM; with SNB-75 CNS, more than 66.5 µM. Moreover, the TGI was more than 100 µM in the assay on K-562 leukemia; more than 52 µM in the assay with SK-MEL-5 melanoma; more than 100 µM with MDA-N; more than 100 µM in the assay on NCI/ADR-RES ovarian; more than 100 µM in the assay on SF-295 CNS.

As for `C=C1CC(CNc2cc(Cl)nc(N)n2)C1`, the TGI with DU-145 prostate, in the assay on MCF7 breast, in the assay with RPMI-8226 leukemia, with UACC-62 melanoma, with HCT-15 colon and in the assay with SNB-75 CNS was more than 100 µM each time. In addition, the TGI with K-562 leukemia, in the assay on SK-MEL-5 melanoma, with MDA-N, with NCI/ADR-RES ovarian and with SF-295 CNS was more than 100 µM throughout.

`COc1ncc(C#CC(=O)c2ccccc2OC)c(OC)n1`: the TGI was 12.3 µM in the assay on DU-145 prostate; 2.91 µM in the assay with MCF7 breast; 9.65 µM in the assay with RPMI-8226 leukemia; 7.49 µM with UACC-62 melanoma; 2.08 µM in the assay with HCT-15 colon; 10.2 µM with SNB-75 CNS. For the same compound, the TGI in the assay on K-562 leukemia is more than 42.9 µM; in the assay on SK-MEL-5 melanoma, 5.85 µM; in the assay on MDA-N, 3.41 µM; with NCI/ADR-RES ovarian, 4.78 µM; in the assay with SF-295 CNS it was 39.7 µM.

With `O=C1NC(N/N=C/C(O)C(O)C(O)C(O)CO)=N/C1=C\c1cccs1` (stereo not given), the total growth inhibition concentration (TGI) in the assay with DU-145 prostate, in the assay on MCF7 breast, in the assay with RPMI-8226 leukemia, in the assay with UACC-62 melanoma, with HCT-15 colon and with SNB-75 CNS was more than 100 µM in each case. For the same compound, the TGI with K-562 leukemia, with SK-MEL-5 melanoma, in the assay with MDA-N, in the assay with NCI/ADR-RES ovarian and in the assay with SF-295 CNS was more than 100 µM throughout.

Turning to `CCOC(=O)c1c(NC(=O)c2ccccc2)sc2c1CCC2`, the total growth inhibition concentration (TGI) in the assay with DU-145 prostate, in the assay on MCF7 breast, in the assay with RPMI-8226 leukemia, with UACC-62 melanoma, in the assay with HCT-15 colon and in the assay with SNB-75 CNS was more than 100 µM each time. The TGI with K-562 leukemia, in the assay on SK-MEL-5 melanoma, in the assay on MDA-N, with NCI/ADR-RES ovarian and in the assay with SF-295 CNS was more than 100 µM throughout.

Take `CCOC(=O)/C=C/[C@H](O[Si](c1ccccc1)(c1ccccc1)c1ccccc1)C(C)(C)C`: the total growth inhibition concentration (TGI) with DU-145 prostate is more than 31.6 µM; in the assay with MCF7 breast, more than 31.6 µM; in the assay on RPMI-8226 leukemia, more than 29 µM; in the assay on UACC-62 melanoma, more than 31.6 µM; with HCT-15 colon, more than 31.6 µM; in the assay with SNB-75 CNS, more than 31.6 µM. Besides, the TGI with K-562 leukemia, with SK-MEL-5 melanoma, in the assay with MDA-N, in the assay on NCI/ADR-RES ovarian and in the assay with SF-295 CNS was more than 31.6 µM throughout.

Consider `C=CC1(CBr)CCC(C(C)(C)Br)O1` (stereo not given), for which the TGI worked out at 25.7 µM with DU-145 prostate; 34.1 µM in the assay with MCF7 breast; 6.11 µM in the assay on RPMI-8226 leukemia; 22.3 µM in the assay on UACC-62 melanoma; 23.8 µM in the assay with HCT-15 colon; 20.4 µM in the assay with SNB-75 CNS. The TGI with K-562 leukemia is more than 25.9 µM; with SK-MEL-5 melanoma, 23.2 µM; in the assay on MDA-N, 22.7 µM; in the assay on NCI/ADR-RES ovarian, 30.7 µM; with SF-295 CNS it was 24.8 µM.

Turning to `CC(C)(N=NC(C)(C)C1=NCCN1)C1=NCCN1`, the TGI with DU-145 prostate, in the assay with MCF7 breast, in the assay on RPMI-8226 leukemia, with UACC-62 melanoma, in the assay on HCT-15 colon and in the assay on SNB-75 CNS was more than 100 µM each time. For the same compound, the TGI with K-562 leukemia, with SK-MEL-5 melanoma, in the assay with MDA-N, in the assay with NCI/ADR-RES ovarian and in the assay with SF-295 CNS was more than 100 µM throughout. Further, the GI50 in the assay with RPMI-8226 leukemia was more than 100 µM.

The TGI is the concentration at which net growth stops. As usually defined, the GI50 is the concentration giving 50% growth inhibition.
